# Ends that are not written are not given here.
# Key:
# [1] = parameters: species or system mice; details: mouse, in vivo
# Method: Mice were anesthetized with urethane and administered PACAP1-38 as an eye drop (1 × 10^6 cpm/eye in benzalkonium-chloride). Serum, whole brain, and eyes were collected 10 or 60 min after the eye drops were administered. The whole brain and eyes were washed in ice-cold PBS. Blood was allowed to clot, centrifuged at 5400× g for 10 min, and 50 μL of the serum obtained was added to 200 μL of 1% BSA in Lactated Ringers' (LR) solution. This mixture was added to 250 μL of 30% trichloroacetic acid, vortexed, and centrifuged for 10 min at 5400× g. Brains and eyes were homogenized separately in 0.5 mL of 1% BSA-LR with a bead beater for 30 s at 4800 rpm × 2 on ice. Samples were transferred to a microfuge tube and centrifuged at 10,000× g for 20 min and a portion of the resulting supernatant added to an equal volume of 30% trichloroacetic acid, vortexed, and centrifuged at 5400× g for 10 min. Resulting supernatant (S) and precipitate (P) from the serum, whole brain, and eyes were counted separately and the percent of radioactivity which could be precipitated with acid (% […]) was calculated using: % […] = 100(P)/(S + P). To correct for any degradation that might have occurred during the processing for acid precipitation, we added 125I-PACAP1-38 to non-radioactive arterial whole blood, whole brain, and eyes, and processed as above. Biological samples were corrected for degradation during processing by dividing their values by the processing control values.
# dipeptidyl-peptidase = details: cited from earlier work
# Description: (§1) Our present study, together with the previous study on PACAP1-27, highlights the potential therapeutic use of PACAP in the form of eye drops to treat retinal diseases. The novelty of our present results is that PACAP1-38, the most commonly occurring form of the peptide, exerts a retinoprotective effect similarly to PACAP1-27. Although most actions of PACAP1-27 and PACAP1-38 are similar or the same, several differences are also known. In most studies, PACAP1-27 binds to the receptors with less affinity, leading to less well-pronounced effects at the same concentration as PACAP1-38 [6, 36]. T ...
# LH surge = details: intracerebroventricular administration; cited from earlier work
# Description: as §1
# retinoblastoma cells = details: high concentrations; cited from earlier work
# Description: as §1
# [2] = test system: ocular barriers and retinal lesion; details: eye drops dissolved in benzalkonium-chloride; cited from earlier work
# Description: The present results are in accordance with our recent observations with PACAP1-27 eye drops.
# [3] = test system: monosodium glutamate-induced excitotoxic lesions of the retina; details: intravitreal injection; cited from earlier work
# Description: (§2) VIP, the peptide with the closest structural similarity ...
# ischemic retinal lesion = details: cited from earlier work
# Description: as §2
# [4] = test system: Müller glial cells (GFAP); test: GFAP immunohistochemistry of Müller glial cell activation after BCCAO; format: in vivo, Wistar rats; details: BCCAO rats, eye drops 1 µg/drop twice a day for 5 days, 2 weeks after ischemia, n = 4; p < 0.05
# Method: Wistar rats (n = 20:n = 12 for histological analysis, n = 8 for immunohistochemical analysis) weighing 250–300 g were subjected to permanent ligation of both common carotid arteries. The animals were bred and kept in the Animal Facility of the University of Pecs, Medical School. They were fed and watered ad libitum, under light/dark cycles of 12/12 h. All procedures were in accordance with institutional guidelines (ethical permission No: BA02/2000-31/2011, University of Pecs). Under isoflurane anesthesia, both common carotid arteries were exposed through a midline cervical incision and ligated with a 3-0 filament. Directly after the operation within 1 min, the right eye was treated with PACAP1-38 eye drops (1 µg/drop) (PACAP was synthesized at the Department of Medical Chemistry, University of Szeged, Szeged, Hungary). […] The left eye served as a control, treated only with the vehicle. A group of animals served as the sham-operated group that underwent anesthesia and all steps of the surgical procedure except ligation of the carotid arteries. […]
# For immunohistochemical analysis, 2 weeks after the induction of ischemia, animals (n = 4 sham, n = 4 sham + PACAP1-38 and n = 4 BCCAO; n = 4 BCCAO + PACAP1-38 retinas) were sacrificed with 120 mg/kg pentobarbital (Nembutal, Sanofi-Phylaxia, Budapest, Hungary). […] Digital photographs were taken with a Nikon Eclipse Ci fluorescence microscope. […]
# [5] = test system: retinal layers in BCCAO-induced retinal hypoperfusion; test: Retina morphology and morphometry after permanent bilateral common carotid artery occlusion (BCCAO); format: in vivo, Wistar rats
# Method: Wistar rats (n = 20:n = 12 for histological analysis, n = 8 for immunohistochemical analysis) weighing 250–300 g were subjected to permanent ligation of both common carotid arteries. The animals were bred and kept in the Animal Facility of the University of Pecs, Medical School. They were fed and watered ad libitum, under light/dark cycles of 12/12 h. All procedures were in accordance with institutional guidelines (ethical permission No: BA02/2000-31/2011, University of Pecs). Under isoflurane anesthesia, both common carotid arteries were exposed through a midline cervical incision and ligated with a 3-0 filament. Directly after the operation within 1 min, the right eye was treated with PACAP1-38 eye drops (1 µg/drop) (PACAP was synthesized at the Department of Medical Chemistry, University of Szeged, Szeged, Hungary). […] The left eye served as a control, treated only with the vehicle. A group of animals served as the sham-operated group that underwent anesthesia and all steps of the surgical procedure except ligation of the carotid arteries. Rats were treated twice a day with one drop, for 5 consecutive days.
# Rats (n = 3 sham, n = 3 sham + PACAP1-38, n = 9 BCCAO, n = 9 BCCAO + PACAP1-38 retinas) were sacrificed with an overdose of anesthetic 2 weeks after BCCAO and eyes were processed for histological analysis. Histological analysis was performed as described previously. Briefly, removed retinas were dissected in phosphate buffered saline (PBS), fixed in 4% paraformaldehyde dissolved in 0.1 M phosphate buffer (PB), embedded in Durcupan ACM resin, and two-µm-thick sections were stained with toluidine blue (Sigma, Budapest, Hungary). Four tissue blocks obtained from at least three rats were prepared and central retinal areas within 1 mm from the optic nerve were used (n = 5 measurements from one tissue block). The following parameters were measured on digital photographs taken with a Nikon Eclipse camera using the Spot program: cross-section from the outer limiting membrane (OLM) to the inner limiting membrane (ILM), and width of all retinal layers (outer nuclear layer-ONL, outer plexiform layer-OPL, inner nuclear layer-INL, inner plexiform layer-IPL). We also counted the number of cells in the ganglion cell layer (GCL). Results are presented as mean ± SEM. Statistical comparisons were made using the two-way ANOVA followed by Fischer’s post hoc analysis.
# [6] = mouse, in vivo
substance,measurement,setting,value
125I-PACAP1-38: PACAP1-38 labeled with 125I using the lactoperoxidase method,"Percentage of acid precipitation, Eye, 10 min",[1],52.73 ± 2.35%
same,"Percentage of acid precipitation, Eye, 60 min",[1],48.24 ± 3.39%
same,"Percentage of acid precipitation, Serum, 10 min",[1],25.57 ± 25.57%
same,"Percentage of acid precipitation, Serum, 60 min",[1],0 ± 0%
same,"Percentage of acid precipitation, Whole Brain, 10 min",[1],104.71 ± 17.72%
same,"Percentage of acid precipitation, Whole Brain, 60 min",[1],75.09 ± 41.13%
same,degradation in the serum after ocular administration,[1],almost completely degraded by 5 min
PACAP1-27: the shorter biologically active form of PACAP [reference compound],metabolic stability in the serum against dipeptidyl-peptidase,dipeptidyl-peptidase,more stable due to the resistance against dipeptidyl-peptidase reaction
same,effect on LH surge,LH surge,opposite reaction
same,viability of retinoblastoma cells,retinoblastoma cells,negligible effects
same,passage through ocular barriers and effect on retinal lesion,[2],"passes through the mouse ocular barriers from the corneal surface to the retina, and ameliorates the retinal lesion"
same,retinoprotection in monosodium glutamate-induced excitotoxic lesions,[3],same degree of retinoprotection
"PACAP6-27: PACAP receptor antagonist (FTDSYSRYRKQMAVKKYLAAVL; ends and bridges not checked; UniProt P18509 137-158, looked up, fragment)",retinoprotection in monosodium glutamate-induced excitotoxic lesions,[3],further increased the excitotoxic damage
"PACAP6-38: PACAP receptor antagonist (FTDSYSRYRKQMAVKKYLAAVLGKRYKQRVKNK; ends and bridges not checked; UniProt P18509 137-169, looked up, fragment)",retinoprotection in monosodium glutamate-induced excitotoxic lesions,[3],further increased the excitotoxic damage
VIP: the peptide with the closest structural similarity to PACAP,concentration needed for the same degree of protection as PACAP in ischemic retinopathy,ischemic retinal lesion,ten times higher
glucagon,protective effects in ischemic retinal lesion,ischemic retinal lesion,do not exert protective effects
pituitary adenylate cyclase activating polypeptide [PACAP1-38],metabolic stability in the serum against dipeptidyl-peptidase,dipeptidyl-peptidase,rapidly degraded in the serum by dipeptidyl-peptidase
same,effect on LH surge,LH surge,inhibition of the LH surge
same,viability of retinoblastoma cells,retinoblastoma cells,reduced viability
same,GFAP upregulation in Müller glial cells,[4],attenuated the GFAP upregulation
same,"Percentage of acid precipitation, Whole Brain, 10 min",[1],104.71 ± 17.72%
same,"Percentage of acid precipitation, Whole Brain, 60 min",[1],75.09 ± 41.13%
same,intact peptide in the eye,[1],about 50%
same,"OLM–ILM (outer limiting membrane–inner limiting membrane) distance, reduction compared to sham controls","[5]; BCCAO rats, eye drops 1 µg/drop in 0.005% benzalkonium-chloride, twice a day for 5 days, 2 weeks after ligation, BCCAO vehicle eye 49.7%, p < 0.001, n = 9 retinas",40.6%
same,"outer nuclear layer (ONL) thickness, reduction","[5]; as E1, BCCAO vehicle eye 36.5%, no statistically significant attenuation",37.7%
same,"inner nuclear layer (INL) thickness, reduction","[5]; as E1, BCCAO vehicle eye 38.5%, p < 0.001",30.5%
same,"number of cells in the ganglion cell layer (GCL), decrease","[5]; as E1, BCCAO vehicle eye 52.4%, p < 0.05",25.9%
same,"outer plexiform layer (OPL) thickness, reduction","[5]; as E1, BCCAO vehicle eye 53.0%, no statistically significant attenuation",48.2%
same,"inner plexiform layer (IPL) thickness, reduction","[5]; as E1, BCCAO vehicle eye 64.8%, p < 0.05",38.2%
same,effect on retinal layers in sham animals,"[5]; sham-operated rats, eye drops 1 µg/drop in benzalkonium, n = 3",did not result in changes in any of the retinal layers
same,clearance into the blood stream (serum),[6],increased clearance into the blood stream after 120 min
same,detection of radioactivity after ocular application,[6],"present in the eye, the brain, and the serum five minutes after application"
same,"level in the whole brain, time course",[6],detected after 5 min in the whole brain (Figure 4D) and levels remained stable throughout the observation time
same,"transport across the cornea, time course",[6],increasing transport across the cornea over the time course of the study
same,"uptake in the retina, time course",[6],increased to 30 min and plateaued
same,retinoprotection in monosodium glutamate-induced excitotoxic lesions,[3],same degree of retinoprotection
pituitary adenylate cyclase activating polypeptide [PACAP],serum and brain levels in comparison to ocular levels,[6],negligible in comparison to ocular levels
secretin,protective effects in ischemic retinal lesion,ischemic retinal lesion,do not exert protective effects

# Source: paper PMC5372685, “Passage through the Ocular Barriers and Beneficial Effects in Retinal Ischemia of Topical Application of PACAP1-38 in Rodents” (International Journal of Molecular Sciences, 2017)
